Reference: article PMC4767442 (Oncotarget, 2015)

Experiments:
[1] = test system: MCF-7 human breast adenocarcinoma cell line; experiment: MTT proliferation/viability assay, MCF-7; type: cell-based; conditions: MCF7, 72 h/37°C, mean ± S.D.
Procedure: (§1) The MCF-7 human breast adenocarcinoma cell line was purchased from the European Collection of Cell Cultures (U.K.). The HL-60 human promyelocytic leukemia cell line, HCT116 human colorectal carcinoma cell line, H9c2 rat heart-derived myoblast cell line and 3T3 mouse embryo fibroblast line, were obtained from the American Type Culture Collection (VA, U.S.A.). Cells were cultured in Dulbecco's modified Eagle's medium (DMEM, Lonza, Switzerland) with or without (for MCF-7 cells only) phenol red, supplemented with 10% heat-inactivated fetal bovine serum (FBS; Lonza, Switzerland), 1% penicillin/streptomycin solution (Lonza, Switzerland) and 10 mM HEPES buffer (pH 7.0-7.6; Sigma-Aldrich, Germany). The HL-60 cell line was maintained in RPMI medium (Sigma-Aldrich, Germany) supplemented with 10% heat-inactivated FBS and 1% penicillin/streptomycin solution. All cell lines were cultured in 75 cm^2 tissue culture flasks (Switzerland) at 37°C in a humidified atmosphere of 5% CO2. Sub-confluent cells or, in the case of HL-60 cells, a cell suspension, were sub-cultured every 3-4 days.
(§2) Cells were seeded in 96-well plates for 24 h/37°C at a density of 5,000 (MCF-7), 10,000 (HL-60), 2,000 (HCT116) and 10,000 (3T3 and H9c2) cells/well. For 3T3 and H9c2 cells, the medium was changed to serum- and pyruvate-free DMEM 24 h prior to the experiments. Anti-proliferative and cytotoxicity effects of the compounds were studied at different concentrations after incubations for 72 h/37°C. Viabilities of cells were determined using MTT assays (Sigma-Aldrich, Germany) according to the manufacturer's instructions on a Tecan Infinite 200M plate reader (Tecan, Austria). The proliferation/viability of treated groups was expressed as a percentage of the untreated controls (100%).

[2] = test system: H9c2 rat heart-derived myoblast cell line; experiment: MTT proliferation/viability assay, H9c2; type: cell-based; conditions: 72 h/37°C, mean ± S.D., serum- and pyruvate-free DMEM
Procedure: as §1, §2

[3] = test system: HCT116 human colorectal carcinoma cell line; experiment: MTT proliferation/viability assay, HCT116; type: cell-based; conditions: HCT-116, 72 h/37°C, mean ± S.D.
Procedure: as §1, §2

[4] = test system: cellular labile iron pools; experiment: Fluorimetric calcein-AM assay of intracellular iron chelation; type: cell-based; conditions: 10 μmol·L^−1
Procedure: (§3) Iron chelation efficiency of the compounds at a concentration of 10 μmol·L^−1 was determined via 3 methods: (1) the calcein assay; (2) the ability of the ligands to induce ^59Fe mobilization from cells prelabeled with ^59Fe-transferrin; and (3) the efficacy of these agents to inhibit the uptake of ^59Fe from ^59Fe-transferrin [22, 38–40].
(§4) The fluorimetric calcein-AM assay was performed by established methods, as described previously. The Fe chelation efficiency of the metabolites in cells was expressed as a percentage of that of the parent chelator, Dp44mT or DpC (100%). For studies assessing the ability of these agents to induce ^59Fe mobilization and inhibit ^59Fe uptake from ^59Fe-transferrin by cells, human transferrin (Sigma-Aldrich, Germany) was labeled with ^59Fe (PerkinElmer, MA, USA) to generate ^59Fe-transferrin at a final specific activity of 500 pCi/pmol Fe, as previously described. The unbound ^59Fe was removed by exhaustive vacuum dialysis against a large excess of 0.15 M NaCl buffered to pH 7.4 with 1.4% NaHCO3 by standard methods.

[5] = test system: HL-60 human promyelocytic leukemia cell line; experiment: MTT proliferation/viability assay, HL-60; type: cell-based; conditions: 72 h/37°C, mean ± S.D.
Procedure: as §1, §2

[6] = test system: 3T3 mouse embryo fibroblast line; experiment: MTT proliferation/viability assay, 3T3; type: cell-based; conditions: 72 h/37°C, mean ± S.D., serum- and pyruvate-free DMEM
Procedure: as §1, §2

MCF-7 cells [7] = experiment: 59Fe mobilization from cells prelabeled with 59Fe-transferrin; type: cell-based, human; conditions: MCF-7 prelabeled with 59Fe-transferrin, compounds 25 μmol·L^−1, 3 h/37°C
Procedure: as §3, §4
(§5) To examine the ability of the studied substances to mobilize ^59Fe from MCF-7 cells or inhibit ^59Fe uptake from ^59Fe-transferrin, established techniques were utilized. For ^59Fe mobilization studies, cells were preincubated with ^59Fe-transferrin (0.75 μmol·L^−1) for 3 h/37°C, washed 4 times at 4°C on ice, and then reincubated with control medium or control medium containing the compounds (25 μmol·L^−1) for 3 h/37°C. The release of ^59Fe from the cells into the overlying medium was then examined by collecting both the cells and overlying medium and assessing ^59Fe levels using a γ-counter. For studies examining the ability of the agents to inhibit ^59Fe uptake from ^59Fe-transferrin, cells were incubated for 3 h/37°C with ^59Fe-transferrin (0.75 μmol·L^−1) in the presence or absence of the agents (25 μmol·L^−1), and then washed 4 times at 4°C on ice. The internalization of ^59Fe by cells was then assessed by incubation for 30 min/4°C with the general protease, Pronase (1 mg/mL), utilizing standard techniques. The amount of internalized ^59Fe in the presence of the agents was expressed as a percentage of ^59Fe internalized by control cells incubated in the presence of control media alone.

MCF-7 cells [8] = experiment: Inhibition of internalized 59Fe uptake from 59Fe-transferrin; type: cell-based, human; conditions: MCF-7, compounds 25 μmol·L^−1, 3 h/37°C
Procedure: as §3, §4, §5

[9] = Long-term stability in plasma samples at -80°C; type: in vitro ADME, rat; conditions: for Long-term stability: plasma, -80°C, 7 days
Procedure: (§6) The UHPLC-MS/MS methods for quantitative assays were validated with respect to selectivity, linearity, precision, accuracy, stability, recovery, matrix effects and dilution integrity (see […]
Linearity was examined over the concentration ranges described in Supplementary Table 1 using a weighted (1/x 2) linear regression in GraphPad Prism 6 (v. 6.04, GraphPad Software […]
(§7) Stability was assessed at low, medium and high concentration levels. Long -term stability was assessed for plasma samples at -80°C over a period of 7 days (three aliquots per level; Supplementary Table 3). […]

[10] = Pharmacokinetics after single i.v. administration to rats (plasma, UHPLC-MS/MS); type: in vivo, Wistar rats
Procedure: Male Wistar rats (230-310 g; n = 22) obtained from Velaz (Czech Republic) were kept in an air-conditioned room under a 12 h light-dark cycle, constant temperature and humidity and had free access to water and a standard laboratory pellet diet for rodents. All animal handling and procedures were approved and supervised by the Animal Welfare Body of the Faculty of Medicine in Hradec Kralove, Charles University in Prague. The investigation conformed to the Guide for the Care and Use of Laboratory Animals.
The rats were anaesthetized with pentobarbital (30 mg^.kg^−1; i.p.) and then the vena jugularis and arteria carotis were prepared for drug administration and blood sample collection, respectively. Both Dp44mT and DpC were dissolved in a mixture of saline, PEG 300 and ethanol (5:4:1, v/v/v) and administered to rats at a dose of 2 mg^.kg^−1, as a slow i.v. bolus. Blood was then collected into EDTA-containing tubes, immediately centrifuged and the plasma kept at −80°C until being analyzed. The blood withdrawn from animals was compensated with an appropriate volume of saline. The animals were sacrificed by pentobarbital overdose.
Initially, for both compounds, rats (n = 2, in each group) were used for the in-vivo investigation of the thiosemicarbazone metabolites and also the preparation of the quantitative analytical method. For the full PK study, 6 rats were used for each compound (group 1) and the blood was sampled at 4, 10, 30, 60, 120, 240 and 360 min post-administration.
Due to the markedly slower elimination of DpC, an additional in-vivo study was performed to appropriately describe the elimination phase of this drug. The conscious rats (n = 8, group 2) were administered DpC (2 mg^.kg^−1) via slow i.v. bolus to the vena saphena. Blood was sampled from the retro-orbital plexus under light ether anesthesia during the following time intervals: 120, 360, 600, 1440 and 1800 min. Plasma samples were treated and analyzed using the analytical methods described below in the Section: UHPLC-MS/MS methods for quantitative assay of the drugs and their metabolites.
Standard non-compartmental analysis was performed implementing Kinetica software (version 4.0, Thermo Fisher Scientific Inc., MA, U.S.A.). […] Maximum concentration (Cmax) and the time to maximum concentration (Tmax) were determined directly from the geometric mean vs. time profiles and from individual profiles. The area under the mean plasma concentration–time curve from zero up to the last sampling interval (AUC0-tlast) was calculated by a combination of the linear and log-linear trapezoidal methods. The area under the mean plasma concentration–time curve from zero up to infinity (AUC) was determined as the sum of the AUC0–tlast and of the extrapolated part (i.e., the ratio of the concentration predicted at the time interval of tlast and the terminal rate constant, λz). The λz was estimated by linear regression of the log transformed concentrations in the terminal part of the curve.
Population pharmacokinetic modeling was performed using non-linear, mixed effect modeling as implemented in Monolix, version 4 (http://wfn.software.monolix.org). Pharmacokinetic parameters were estimated by computing the maximum likelihood estimator of the parameters without any approximation of the model (no linearization). This was performed using the Stochastic Approximation Expectation Maximization (SAEM) algorithm combined with a Markov chain Monte Carlo procedure. The between-animal variability in model parameters were ascribed to an exponential model and a proportional model was used to describe the residual variability. The goodness-of-fit was assessed by using several diagnostic plots (observed and predicted concentrations vs. time; observed concentrations vs. population predictions; weighted residuals vs. time; and weighted residuals vs. predictions). Individual parameter values were obtained as empirical Bayes estimates. […]

[11] = Post-preparative stability in the autosampler at 10°C; type: physicochemical; conditions: for Post-preparative stability: autosampler 10°C, 24 h
Procedure: as §6
Supplementary Table 1-3). […]
as §7

[12] = high concentration level (2.105-3.115 µmol·L-1)
[13] = low concentration level (0.035-0.156 µmol·L-1)
[14] = medium concentration level (0.702-1.558 µmol·L-1)

| SMILES | IC50 [1] | IC50 [2] | IC50 [3] | intracellular Fe chelation efficacy (in words) [4] | IC50 [5] | IC50 [6] | 59Fe mobilization (in words) (MCF-7 cells [7]) | inhibition of 59Fe uptake from 59Fe-transferrin (in words) (MCF-7 cells [8]) | further results |
| --- | --- | --- | --- | --- | --- | --- | --- | --- | --- |
| CN(C)C(=O)NN=C(c1ccccn1)c1ccccn1 [Dp44mS, di(2-pyridyl)ketone 4,4-dimethylsemicarbazone] | 29.4 ± 8.63 µM | 367 ± 63.4 µM | 9.31 ± 1.58 µM | lower ability to bind intracellular Fe than their parent ligands | 27.3 ± 3.56 µM | 139 ± 28.9 µM | approximately half as effective as Dp44mT | – | internalized 59Fe uptake from 59Fe-transferrin, % of the control (MCF-7 cells [8]): 64% |
| CNC(=S)NN=C(c1ccccn1)c1ccccn1 [Dp4mT, di(2-pyridyl)ketone 4-methyl-3-thiosemicarbazone] | – | – | – | – | – | – | – | – | Long-term stability [9, 12]: 90.82%; Long-term stability [9, 13]: 94.78%; Long-term stability [9, 14]: 90.83%; decomposition on storage (in words) ([9]; up to 7 days stored at −80°C): No significant decomposition; Cmax ([10]; male, Wistar, rat, plasma, iv, 2 mg/kg, rats, i.v. 2 mg·kg^−1, non-compartmental analysis of geometric mean plasma curves, Dp4mT = metabolite after Dp44mT dosing, read-out: Cmax): 496 nM; Tmax ([10]; male, Wistar, rat, plasma, iv, 2 mg/kg, rats, i.v. 2 mg·kg^−1, non-compartmental analysis, Dp4mT = metabolite after Dp44mT dosing, read-out: Tmax (converted)): 0.167 h; AUC(0-inf) ([10]; male, Wistar, rat, plasma, iv, 2 mg/kg, rats, i.v. 2 mg·kg^−1, non-compartmental analysis, read-out: AUC (zero to infinity)): 0.748 µM·h; half-life ([10]; male, Wistar, rat, plasma, iv, 2 mg/kg, rats, i.v. 2 mg·kg^−1, non-compartmental analysis, read-out: t1/2 (elimination half-life) (converted)): 2 h; AUC(0-t) ([10]; male, Wistar, rat, plasma, iv, 2 mg/kg, read-out: AUC0-tlast): 0.671 µM·h; lamdaz (terminal rate constant of elimination) ([10]; rats, i.v. 2 mg·kg^−1, non-compartmental analysis): 0.346 h⁻¹; decomposition on storage (in words) ([11]; 24 h storage in the autosampler at 10°C): No significant decomposition; Post-preparative stability [11, 12]: 95.44%; Post-preparative stability [11, 13]: 100.24%; Post-preparative stability [11, 14]: 111.72% |
| CN(C(=O)NN=C(c1ccccn1)c1ccccn1)C1CCCCC1 [DpC-S, di(2-pyridyl)ketone 4-cyclohexyl-4-methylsemicarbazone] | 3 ± 0.81 µM | 5.59 ± 0.82 µM | 3.03 ± 0.91 µM | lower ability to bind intracellular Fe than their parent ligands | 2.57 ± 0.33 µM | 12.8 ± 2.87 µM | comparable to DpC | marked and similar to DpC | – |
| O=C(c1ccccn1)c1ccccn1 [DpK, di(2-pyridyl)ketone] | > 1000 µM | > 1000 µM | > 1000 µM | lower ability to bind intracellular Fe than their parent ligands | > 1000 µM | > 1000 µM | no greater than the control | did not have any significant (p>0.05) effect | – |
